Like-named read-outs stand apart in the source and are kept apart here.
Columns and labels:
[1] = format: in vivo, male CF-1 mice; conditions: for AUC0→720min / Cmax / Tmax: EGCG 100 mg/kg i.g.
[2] = biological target: T1, catechol-O-methyl transferase (COMT) (Mus musculus, UniProt O88587); assay: Fraction of unmethylated total EGCG; format: in vivo, male CF-1 mice
T1 sequence (O88587 1-265): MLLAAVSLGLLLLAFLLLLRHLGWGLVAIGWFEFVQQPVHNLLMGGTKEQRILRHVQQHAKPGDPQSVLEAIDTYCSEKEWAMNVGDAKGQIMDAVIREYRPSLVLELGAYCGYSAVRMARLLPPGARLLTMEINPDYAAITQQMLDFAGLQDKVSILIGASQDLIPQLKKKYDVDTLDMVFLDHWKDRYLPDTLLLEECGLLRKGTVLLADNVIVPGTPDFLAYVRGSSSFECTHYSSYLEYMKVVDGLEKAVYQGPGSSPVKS

[3] = tested on: murine lung cancer cells; conditions: murine lung cancer cells in vitro; ref Forester & Lambert, 2014; cited from earlier work
[4] = tested on: human lung cancer cells; conditions: human lung cancer cells in vitro; ref Forester & Lambert, 2014; cited from earlier work
[5] = tested on: COMT; conditions: ref Wang, Heber, & Henning, 2012; cited from earlier work

SMILES: O=C(O[C@@H]1Cc2c(O)cc(O)cc2O[C@@H]1c1cc(O)c(O)c(O)c1)c1cc(O)c(O)c(O)c1 [EGCG, (−)-epigallocatechin-3-gallate]
- AUC0→720min ([1]; Cecum, TOL (+) 30 mg/kg i.g.): 39152.8 ± 8338.2 (nmol/g)•min
- Cmax ([1]; Cecum, TOL (+) 30 mg/kg i.g.): 97.7 ± 19.4 nmol/g
- Tmax ([1]; Cecum, TOL (+) 30 mg/kg i.g.): 7.555 ± 2.118 h
- AUC0→720min ([1]; Cecum, TOL (−)): 41580.2 ± 10560.6 (nmol/g)•min
- Cmax ([1]; Cecum, TOL (−)): 117.7 ± 31.7 nmol/g
- Tmax ([1]; Cecum, TOL (−)): 5.013 ± 1.66 h
- AUC0→720min ([1]; Colon, TOL (+) 30 mg/kg i.g.): 18631.3 ± 2844.0 (nmol/g)•min
- Cmax ([1]; Colon, TOL (+) 30 mg/kg i.g.): 37.6 ± 5.8 nmol/g
- Tmax ([1]; Colon, TOL (+) 30 mg/kg i.g.): 4 ± 1 h
- AUC0→720min ([1]; Colon, TOL (−)): 26301.3 ± 8881.3 (nmol/g)•min
- Cmax ([1]; Colon, TOL (−)): 63.8 ± 9.6 nmol/g
- Tmax ([1]; Colon, TOL (−)): 7 ± 2.645 h
- AUC0→720min ([1]; Kidney, TOL (+) 30 mg/kg i.g.): 461.7 ± 358.5 (nmol/g)•min
- Cmax ([1]; Kidney, TOL (+) 30 mg/kg i.g.): 2.0 ± 1.7 nmol/g
- Tmax ([1]; Kidney, TOL (+) 30 mg/kg i.g.): 4.445 ± 3.783 h
- AUC0→720min ([1]; Kidney, TOL (−)): 95.7 ± 5.6 (nmol/g)•min
- Cmax ([1]; Kidney, TOL (−)): 0.4 ± 0.1 nmol/g
- Tmax ([1]; Kidney, TOL (−)): 6.028 ± 3.44 h
- AUC0→720min ([1]; Liver, TOL (+) 30 mg/kg i.g.): 1324.8 ± 390.5 (nmol/g)•min
- Cmax ([1]; Liver, TOL (+) 30 mg/kg i.g.): 2.7 ± 0.7 nmol/g
- Tmax ([1]; Liver, TOL (+) 30 mg/kg i.g.): 3.528 ± 1.792 h
- AUC0→720min ([1]; Liver, TOL (−)): 871.5 ± 401.9 (nmol/g)•min
- Cmax ([1]; Liver, TOL (−)): 2.2 ± 0.9 nmol/g
- Tmax ([1]; Liver, TOL (−)): 3.333 ± 0.918 h
- AUC0→720min ([1]; Lung, TOL (+) 30 mg/kg i.g.): 1002.1 ± 682.1 (nmol/g)•min
- Cmax ([1]; Lung, TOL (+) 30 mg/kg i.g.): 23.3 ± 20.8 nmol/g
- Tmax ([1]; Lung, TOL (+) 30 mg/kg i.g.): 2.792 ± 1.893 h
- AUC0→720min ([1]; Lung, TOL (−)): 203.3 ± 156.4 (nmol/g)•min
- Cmax ([1]; Lung, TOL (−)): 1.4 ± 1.2 nmol/g
- Tmax ([1]; Lung, TOL (−)): 2.355 ± 1.38 h
- AUC0→720min ([1]; Plasma, TOL (+) 30 mg/kg i.g.): 154887.7 ± 39082.1 nM·min
- Cmax ([1]; Plasma, TOL (+) 30 mg/kg i.g.): 1530 ± 345 nM
- Tmax ([1]; Plasma, TOL (+) 30 mg/kg i.g.): 0.208 ± 0.0567 h
- AUC0→720min ([1]; Plasma, TOL (−)): 245330.8 ± 74700.1 nM·min
- Cmax ([1]; Plasma, TOL (−)): 1190 ± 315 nM
- Tmax ([1]; Plasma, TOL (−)): 0.278 ± 0.15 h
- Tmax ([1]; Urine (pooled), TOL (+) 30 mg/kg i.g.): 0.333 h
- Tmax ([1]; Urine (pooled), TOL (−)): 0.083 h
- unmethylated EGCG as fraction of the total ([2]; plasma, EGCG 100 mg/kg i.g. with co-administration of TOL 30 mg/kg i.g.): 87.9%
- unmethylated EGCG as fraction of the total ([2]; plasma, mice treated with EGCG 100 mg/kg i.g. only): 63.4%
- unmethylated EGCG as fraction of the total ([2]; urine, EGCG 100 mg/kg i.g. plus TOL 30 mg/kg i.g.): 81.8%
- unmethylated EGCG as fraction of the total ([2]; urine, mice treated with EGCG 100 mg/kg i.g. only): 29.2%

SMILES: CCN(CC)C(=O)/C(C#N)=C/c1cc(O)c(O)c([N+](=O)[O-])c1 [entacapone]
- growth inhibition in combination with EGCG [3]: synergistically inhibited
- growth inhibition in combination with EGCG [4]: synergistically inhibited

SMILES: Cc1ccc(C(=O)c2cc(O)c(O)c([N+](=O)[O-])c2)cc1 [TOL, tolcapone, reference compound]
- effect on Cmax of unmethylated, unconjugated EGCG ([1]; cecum or colon, TOL co-treatment vs EGCG only): did not affect
- effect on AUC0→720min of unmethylated, unconjugated EGCG ([1]; liver, kidney, lung and urine, TOL co-administration vs EGCG only): tended to increase
- effect on AUC0→720min of unmethylated, unconjugated EGCG ([1]; plasma, cecum and colon, TOL co-treatment vs EGCG only): nor did it affect
- effect on Cmax of unmethylated, unconjugated EGCG ([1]; plasma, liver, kidney, lung and urine, TOL co-administration vs EGCG only): tended to increase
- effect on levels of unmetabolised (unmethylated, unconjugated) EGCG ([1]; plasma, co-treatment TOL 30 mg/kg + EGCG 100 mg/kg i.g. vs EGCG only (Fig. 2)): did not significantly affect
- growth inhibition in combination with EGCG [3]: synergistically inhibited
- growth inhibition in combination with EGCG [4]: synergistically inhibited

SMILES: O=c1c(O)c(-c2ccc(O)c(O)c2)oc2cc(O)cc(O)c12 [quercetin]
- increase of the levels of EGCG found in the lung and kidney [5]: greater than 2 fold
